Each structure is given as a SMILES string. Some results are limits rather than exact numbers.

For this assay, the system named is Bloodstream form of Trypanosoma brucei, strain Lister 427. Description: Trypanosoma brucei growth inhibition assay (CellTiter-Glo, 24 h). To be noted: Trypanosoma brucei; T. Brucei Growth Inibition Assay, class symbols; read-out: T. Brucei GI EC50. It is filed as cell-based. In outline:
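Bloodstream-form T. brucei Lister 427, 1500 parasites per well in supplemented IMDM with 10% FBS, were exposed to compound (DMSO ≤0.25% final) for 24 h at 37 °C. Viability was measured by CellTiter-Glo luminescence.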
(In general: ATP-based viability assays read luminescence as a measure of living cells.)
With `COc1nc2ccccc2cc1-c1cnc([C@@H]2CN(Cc3cccnc3)CCN2C(=O)Cn2c(C(F)(F)F)nc3ccccc32)[nH]1` [(S)-1-(2-(5-(2-methoxyquinolin-3-yl)-1H-imidazol-2-yl)-4-(pyridin-3-ylmethyl)piperazin-1-yl)-2-(2-(trifluoromethyl)-1H-benzo[d]imidazol-1-yl)ethan-1-one], the EC50 (in general, the midpoint of the concentration-response curve) was under 100 nM.

Turning to `COc1nc2ccccc2cc1-c1cnc(C2CN(CC3CCOC3)CCN2C(=O)c2cnc3ccccc3c2)[nH]1` (stereo not shown), the EC50 lay in the range of 1010 to 5000 nM.

Consider `COc1ccc2nc(C)n(CC(=O)N3CCN(Cc4cocn4)C[C@H]3c3ncc(-c4cc5ccccc5nc4OC)[nH]3)c2c1` [(S)-2-(6-methoxy-2-methyl-1H-benzo[d]imidazol-1-yl)-1-(2-(5-(2-methoxyquinolin-3-yl)-1H-imidazol-2-yl)-4-(oxazol-4-ylmethyl)piperazin-1-yl)ethan-1-one], for which the EC50 is under 100 nM.

Consider `COc1ccc2nc(C(F)(F)F)n(CC(=O)N3CC[C@H](NCCn4cccn4)C[C@H]3c3ncc(-c4cc5ccccc5nc4OC)[nH]3)c2c1` [1-((2S,4S)-4-((2-(1H-pyrazol-1-yl)ethyl)amino)-2-(5-(2-methoxyquinolin-3-yl)-1H-imidazol-2-yl)piperidin-1-yl)-2-(6-methoxy-2-(trifluoromethyl)-1H-benzo[d]imidazol-1-yl)ethan-1-one], for which the EC50 was under 100 nM.

Regarding `COc1ccc2nc(C(F)(F)F)n(CC(=O)N3CCN(Cc4nccs4)C[C@H]3c3nnc(-c4cc5ccccc5nc4OC)[nH]3)c2c1` [(S)-2-(6-methoxy-2-(trifluoromethyl)-1H-benzo[d]imidazol-1-yl)-1-(2-(5-(2-methoxyquinolin-3-yl)-4H-1,2,4-triazol-3-yl)-4-(thiazol-2-ylmethyl)piperazin-1-yl)ethan-1-one], the EC50 was under 100 nM.

For the compound `COc1ccc2nc(C(F)(F)F)n(CC(=O)N3CCN(Cc4ccn(C)n4)CCC3c3ncc(-c4cc5ccccc5nc4OC)[nH]3)c2c1` (stereo not shown) [2-(6-methoxy-2-(trifluoromethyl)-1H-benzo[d]imidazol-1-yl)-1-(7-(5-(2-methoxyquinolin-3-yl)-1H-imidazol-2-yl)-4-((1-methyl-1H-pyrazol-3-yl)methyl)-1,4-diazepan-1-yl)ethan-1-one], the EC50 was under 100 nM.

As to `CN1CCN(C(=O)Cc2cn(C)c3ccccc23)C(c2ncc(-c3ccc4ccccc4c3)[nH]2)C1` (stereo not shown), the EC50 was in the range of 1010 to 5000 nM.

With `COc1nc2ccccc2cc1-c1cnc(C2CN(C3CCN(C)CC3)CCN2C(=O)Cc2c(C)[nH]c3ccc(F)cc23)[nH]1` (stereo not shown), the EC50 is 510 to 1000 nM.

Consider `COc1ccc2nc(C)n(CC(=O)N3CC[C@H](N4CCOCC4)C[C@H]3c3ncc(-c4cc5ccccc5nc4OC)[nH]3)c2c1` [2-(6-methoxy-2-methyl-1H-benzo[d]imidazol-1-yl)-1-((2S,4S)-2-(5-(2-methoxyquinolin-3-yl)-1H-imidazol-2-yl)-4-morpholinopiperidin-1-yl)ethan-1-one], for which the EC50 was in the range of 100 to 500 nM.

`COc1nc2ccccc2cc1-c1cnc(C2CN(CC3CCOC3)CCN2C(=O)Cc2c[nH]c3ccncc23)[nH]1` (stereo not shown): the EC50 fell in the range of 1010 to 5000 nM.

Regarding `COc1nc2ccccc2cc1-c1cnc(C2CNCCN2C(=O)Cc2c(C)[nH]c3ccc(F)cc23)[nH]1` (stereo not shown) [2-(5-fluoro-2-methyl-1H-indol-3-yl)-1-(2-(5-(2-methoxyquinolin-3-yl)-1H-imidazol-2-yl)piperazin-1-yl)ethan-1-one], the EC50 is 1010 to 5000 nM.

Turning to `COc1ccc2nc(C)n(CC(=O)N3CCN(Cc4ccn(C)n4)CCC3c3ncc(-c4cc5ccccc5nc4OC)[nH]3)c2c1` (stereo not shown) [2-(6-methoxy-2-methyl-1H-benzo[d]imidazol-1-yl)-1-(7-(5-(2-methoxyquinolin-3-yl)-1H-imidazol-2-yl)-4-((1-methyl-1H-pyrazol-3-yl)methyl)-1,4-diazepan-1-yl)ethan-1-one], the EC50 was under 100 nM.

Regarding `COc1ccc2c(c1)C(CC(=O)N1CCN(CC3CC3)CC1c1ncc(-c3ccc4ccccc4c3)[nH]1)C(=O)N2` (stereo not shown), the EC50 fell in the range of 1010 to 5000 nM.

Consider `CN1CCN(C(=O)CCS(=O)(=O)c2ccccc2)C(c2ncc(-c3ccc4ccccc4c3)[nH]2)C1` (stereo not shown), for which the EC50 fell in the range of 1010 to 5000 nM.

Take `COc1nc2ccccc2cc1-c1cnc([C@@H]2CN(C3CCN(C(C)=O)CC3)CCN2C(=O)Cn2c(C(F)(F)F)nc3ccccc32)[nH]1` [(S)-1-(4-(1-acetylpiperidin-4-yl)-2-(5-(2-methoxyquinolin-3-yl)-1H-imidazol-2-yl)piperazin-1-yl)-2-(2-(trifluoromethyl)-1H-benzo[d]imidazol-1-yl)ethan-1-one]: the EC50 is under 100 nM.

Take `COc1ccc2nc(C(F)(F)F)n(CC(=O)N3CCN(CCn4cnnc4)C[C@H]3c3ncc(-c4cc5ccccc5nc4OC)[nH]3)c2c1`: the EC50 was 1010 to 5000 nM.

As for `Cc1csc(CC(=O)N2CCN(CC3CC3)CC2c2ncc(-c3ccc4ccccc4c3)[nH]2)n1` (stereo not shown), the EC50 lay within 1010 to 5000 nM.

Turning to `COc1ccc2nc(C(F)(F)F)n(CC(=O)N3CCN(CCn4cccn4)CCC3c3ncc(-c4cc5ccccc5nc4OC)[nH]3)c2c1` (stereo not shown) [1-(4-(2-(1H-pyrazol-1-yl)ethyl)-7-(5-(2-methoxyquinolin-3-yl)-1H-imidazol-2-yl)-1,4-diazepan-1-yl)-2-(6-methoxy-2-(trifluoromethyl)-1H-benzo[d]imidazol-1-yl)ethan-1-one], the EC50 was under 100 nM.

`COc1nc2ccccc2cc1-c1cnc([C@@H]2CN(Cc3cocn3)CCN2C(=O)Cn2c(C(F)(F)F)nc3ccccc32)[nH]1` [(S)-1-(2-(5-(2-methoxyquinolin-3-yl)-1H-imidazol-2-yl)-4-(oxazol-4-ylmethyl)piperazin-1-yl)-2-(2-(trifluoromethyl)-1H-benzo[d]imidazol-1-yl)ethan-1-one]: the EC50 is under 100 nM.

As to `COc1nc2ccccc2cc1-c1cnc(C2CN(CC3CCOC3)CCN2C(=O)c2cc3cc(OCc4ccccc4)ccc3[nH]2)[nH]1` (stereo not shown), the EC50 fell in the range of 1010 to 5000 nM.

On to `COc1nc2ccccc2cc1-c1cnc([C@@H]2CN(Cc3ccccc3)CCN2C(=O)Cn2c(C(F)(F)F)nc3ccccc32)[nH]1` [(S)-1-(4-benzyl-2-(5-(2-methoxyquinolin-3-yl)-1H-imidazol-2-yl)piperazin-1-yl)-2-(2-(trifluoromethyl)-1H-benzo[d]imidazol-1-yl)ethan-1-one], for which the EC50 was under 100 nM.

With `COc1ccc2[nH]c(C)c(CC(=O)N3CCNCC3c3ncc(-c4cc5ccccc5nc4OC)[nH]3)c2c1` (stereo not shown), the EC50 is 510 to 1000 nM.

Take `COc1ccc2nc(C(F)(F)F)n(CC(=O)N3CCN(CC4CCOC4)C[C@H]3c3nnc(-c4cc5ccccc5nc4OC)[nH]3)c2c1` (stereo partly drawn) [2-(6-methoxy-2-(trifluoromethyl)-1H-benzo[d]imidazol-1-yl)-1-((2S)-2-(5-(2-methoxyquinolin-3-yl)-4H-1,2,4-triazol-3-yl)-4-((tetrahydrofuran-3-yl)methyl)piperazin-1-yl)ethan-1-one]: the EC50 is under 100 nM.

Take `COc1nc2ccccc2cc1-c1cnc(C2CCN(Cc3ccn(C)n3)CCN2C(=O)Cn2c(C(F)(F)F)nc3ccccc32)[nH]1` (stereo not shown) [1-(7-(5-(2-methoxyquinolin-3-yl)-1H-imidazol-2-yl)-4-((1-methyl-1H-pyrazol-3-yl)methyl)-1,4-diazepan-1-yl)-2-(2-(trifluoromethyl)-1H-benzo[d]imidazol-1-yl)ethan-1-one]: the EC50 is under 100 nM.

In the case of `COc1ccc2nc(C(F)(F)F)n(CC(=O)N3CCN(Cc4cnccn4)C[C@H]3c3ncc(-c4cc5ccccc5nc4OC)[nH]3)c2c1` [(S)-2-(6-methoxy-2-(trifluoromethyl)-1H-benzo[d]imidazol-1-yl)-1-(2-(5-(2-methoxyquinolin-3-yl)-1H-imidazol-2-yl)-4-(pyrazin-2-ylmethyl)piperazin-1-yl)ethan-1-one], the EC50 was under 100 nM.

As to `COc1nc2ccccc2cc1-c1cnc(C2CCN(Cc3ccn(C)n3)CCN2C(=O)Cc2c(C)[nH]c3ccc(F)cc23)[nH]1` (stereo not shown) [2-(5-fluoro-2-methyl-1H-indol-3-yl)-1-(7-(5-(2-methoxyquinolin-3-yl)-1H-imidazol-2-yl)-4-((1-methyl-1H-pyrazol-3-yl)methyl)-1,4-diazepan-1-yl)ethan-1-one], the EC50 is under 100 nM.

For the compound `COc1nc2ccccc2cc1-c1cnc(C2CN(CC3CCOC3)CCN2C(=O)Cn2ccc3cc(C#N)ccc32)[nH]1` (stereo not shown), the EC50 fell in the range of 510 to 1000 nM.

Turning to `COc1ccc2nc(C(F)(F)F)n(CC(=O)N3CCN(CCc4ccccn4)C[C@H]3c3ncc(-c4cc5ccccc5nc4OC)[nH]3)c2c1` [(S)-2-(6-methoxy-2-(trifluoromethyl)-1H-benzo[d]imidazol-1-yl)-1-(2-(5-(2-methoxyquinolin-3-yl)-1H-imidazol-2-yl)-4-(2-(pyridin-2-yl)ethyl)piperazin-1-yl)ethan-1-one], the EC50 is under 100 nM.

Turning to `COc1ccc2nc(C(F)(F)F)n(CC(=O)N3CCN(C4CCOCC4)CCC3c3ncc(-c4cc5ccccc5nc4OC)[nH]3)c2c1` (stereo not shown) [2-(6-methoxy-2-(trifluoromethyl)-1H-benzo[d]imidazol-1-yl)-1-(7-(5-(2-methoxyquinolin-3-yl)-1H-imidazol-2-yl)-4-(tetrahydro-2H-pyran-4-yl)-1,4-diazepan-1-yl)ethan-1-one], the EC50 is under 100 nM.

As for `COc1ccc2nc(C(F)(F)F)n(CC(=O)N3CC[C@H](NC(C)C)C[C@H]3c3ncc(-c4cc5ccccc5nc4OC)[nH]3)c2c1` [1-((2S,4S)-4-(isopropylamino)-2-(5-(2-methoxyquinolin-3-yl)-1H-imidazol-2-yl)piperidin-1-yl)-2-(6-methoxy-2-(trifluoromethyl)-1H-benzo[d]imidazol-1-yl)ethan-1-one], the EC50 was under 100 nM.

As to `COc1nc2ccccc2cc1-c1cnc(C2CN(CC3CCOC3)CCN2C(=O)Cn2c(C)nc3cc(F)ccc32)[nH]1` (stereo not shown), the EC50 is 100 to 500 nM.

Turning to `COc1ccc2[nH]c(C)c(CC(=O)N3CCN(C)CCC3c3ncc(-c4ccc5ccccc5c4)[nH]3)c2c1` (stereo not shown) [2-(5-methoxy-2-methyl-1H-indol-3-yl)-1-(4-methyl-7-(5-(naphthalen-2-yl)-1H-imidazol-2-yl)-1,4-diazepan-1-yl)ethan-1-one], the EC50 is 100 to 500 nM.

Turning to `CN1CCN(C(=O)Cn2cc3ccccc3n2)C(c2ncc(-c3ccc4ccccc4c3)[nH]2)C1` (stereo not shown), the EC50 lay in the range of 1010 to 5000 nM.

As for `COc1ccc2nc(C)n(CC(=O)N3CCN(C)CCC3c3ncc(-c4cc5ccccc5nc4OC)[nH]3)c2c1` (stereo not shown), the EC50 is 1010 to 5000 nM.

The values above are taken from US10815222B2, “Compounds for use in the treatment of kinetoplastid infection” (C.N.C.C.S. S.c.a.r.l. COLLEZIONE NAZIONALE DEI COMPOSTI …, priority 2016, dated 2020).
